For one assay, the target named is yeast α-glucosidase. Briefly: α-glucosidase inhibitory activity assay (p-NPG substrate, absorbance at 405 nm). Format: biochemical, Saccharomyces cerevisiae. Here is the method:
This experiment was carried out in 96-well plates with reaction system of 230 μL. […] The 96-well plates were incubated in a constant-temperature incubator for 20 min at 37 °C, then 20 μL of 2.658 mmol/L p-PNG was added, and then incubation continued for another 28 min. The termination of the reaction was conducted by adding 80 μL of 0.2 mol/L Na2CO3 to each well. The absorbance was recorded for each well at 405 nm by a microplate reader, and the experiment was carried out three times in parallel. The measured absorbance values were processed by Graphpad Prism software 9.5 to calculate the IC50 values of the compounds.

A further assay has as its system α-glucosidase. Briefly: Inhibitory kinetics against α-glucosidase (Lineweaver–Burk plots). It is filed as biochemical, Saccharomyces cerevisiae. Conditions: Lineweaver–Burk plot; compound 0, 5.44, 10.87, 21.74 μM. The source says:
The inhibitory kinetics of seven compounds (8-9, 11, 13, 24-26) that have strong α-glucosidase inhibitory activities were studied. The Lineweaver–Burk plot was used to determine their inhibition types against α-glucosidase. […] As for compound 8, the slope of the lines became greater with the increase in the concentration, but all straight lines intersected with the x-axis almost at one point (while Vmax decreased, Km was unchanged), showing that α-glucosidase inhibition mediated by compound 8 is noncompetitive, signifying that it can bind to either the free α-glucosidase or the enzyme–substrate complex to interfere the enzyme reaction without directly blocking the binding of the substrate to the enzyme.
Concentrations of active compounds 8-9, 11, 13, 24-26 (0, 5.44, 10.87, 21.74 μM) and the substrate p-NPG ([…]) were prepared, and an experimental protocol is described in detail in the literature. The data were acquired using the Lineweaver–Burk equation of enzyme kinetics.

Where [1] appears, read: IC50 ± SD, PBS pH 6.8, 37 °C, three times in parallel, read-out: IC50 (μM), inhibition activities on α-Glucosidase.
Where [2] appears, read: unit inferred, read-out: IC50 against α-glucosidase (unit inferred).

Read-outs that look alike come from different tables or passages of the source. Where only a bound is given, the exact number is not on record here.

The IC50 is the concentration that inhibits the measured activity by half. Take `COc1cc(/C=C/c2ccccc2)c(C(=O)O)c2c1C[C@@H](O)C(C)(C)O2` [Compound 2, cajanstilbenoid D]: at yeast α-glucosidase (setting [1]), the IC50 is above 2000 µM.

As to `O=c1cc(-c2ccc(O)c(O)c2)oc2cc(O)ccc12` [Compound 25, 7, 3′, 4′-trihydroxy flavone], the half-maximal inhibitory concentration (IC50) at yeast α-glucosidase (setting [1]) and on yeast α-glucosidase (setting [2]) was 3.17 ± 0.55 µM each time.

`CC1(C)Oc2cc(/C=C/c3ccccc3)cc(O)c2CC1O` (stereo not drawn) [Compound 4, chiricanine B]: the IC50 at yeast α-glucosidase (setting [1]) is above 2000 µM.

For `COc1ccc2c(=O)c(-c3ccc(O)cc3O)coc2c1` [Compound 18, 7-methoxy-2′, 4′-dihydroxy isoflavone], on yeast α-glucosidase (setting [1]), the IC50 was above 2000 µM.

As to `COc1cc(O)c2c(=O)cc(-c3ccccc3)oc2c1CC=C(C)C` [Compound 13, 5-hydroxy-7-methoxy-8-prenylflavone], the IC50 stood at 2.3 ± 0.51 µM at yeast α-glucosidase (setting [1]) and 2.3 ± 0.5 µM at yeast α-glucosidase (setting [2]). Also, the “inhibition type against α-glucosidase” value in the assay with α-glucosidase is on record as “mixed-competitive”.

As to `CC1(C)C=Cc2c(cc3occ(-c4ccc(O)cc4)c(=O)c3c2O)O1` [Compound 27, alpinum isoflavone], at yeast α-glucosidase (setting [1]), the IC50 was above 2000 µM.

As to `COc1cc(O)c2c(c1)O[C@H](c1ccc(O)cc1)CC2=O` [Compound 16, sakuranetin], on yeast α-glucosidase (setting [1]), the IC50 was above 2000 µM.

Turning to `COc1cc(O)c2c(c1)O[C@H](c1ccccc1)CC2=O` [Compound 15, pinostrobin], the IC50 at yeast α-glucosidase (setting [1]) is above 2000 µM.

For `COc1cc(O)c2c3c1C[C@H](C(C)(C)O)[C@H](c1ccccc1)[C@H]3OC2=O` [Compound 1, cajanstilbenoid C], on yeast α-glucosidase (setting [1]), the IC50 is above 2000 µM.

Consider `CC(C)=CCc1c(O)cc2oc(-c3ccccc3)cc(=O)c2c1O` [Compound 12, 6-C-(3,3-dimethylallyl) chrysin], for which the IC50 at yeast α-glucosidase (setting [1]) was above 2000 µM.

In the case of `CC(C)=CCc1c(O)cc(O)c2c1O[C@H](c1ccc(O)cc1)[C@@H](O)C2=O` [Compound 20, neophellamuretin], the IC50 at yeast α-glucosidase (setting [1]) and on yeast α-glucosidase (setting [2]) was 4.5 ± 0.49 µM each time.

As to `COc1cc(O)cc(CCc2ccccc2)c1CC=C(C)C` [Compound 8], the IC50 at yeast α-glucosidase (setting [1]) was found to be 7 ± 0.45 µM. In the assay on α-glucosidase, the “inhibition type against α-glucosidase” value is listed as “noncompetitive”.

`COc1cc(/C=C/c2ccccc2)c(C(=O)O)c(O)c1CC=C(C)C` [Compound 5, cajaninstilbene acid]: on yeast α-glucosidase (setting [1]), the IC50 is above 2000 µM.

As to “7, 3′, 4′-trihydroxy isoflavone [Compound 24]”, the IC50 on yeast α-glucosidase (setting [1]) came out at 6.5 ± 0.42 µM.

Take `COc1cc(/C=C/c2ccccc2)cc(O)c1CC=C(C)C` [Compound 9, longistylin A]: on yeast α-glucosidase (setting [1]), the IC50 was 12.9 ± 1.31 µM. Further, the “inhibition type against α-glucosidase” value in the assay with α-glucosidase is given as “mixed-competitive”.

For `COc1cc(O)c2c(c1CC=C(C)C)O[C@H](c1ccccc1)[C@@H](O)C2=O` [Compound 14, 3,5-dihydroxy-7-methoxy-8-isopentenyl-dihydroflavone], the IC50 at yeast α-glucosidase (setting [1]) is above 2000 µM.

As for `COc1cc(O)cc(CC(=O)c2ccccc2)c1CC=C(C)C` [Compound 7, cajanotone], the IC50 at yeast α-glucosidase (setting [1]) was above 2000 µM.

For `COc1cc(O)cc(/C=C/c2ccccc2)c1` [Compound 6, pinosylvin monomethyl ether], the IC50 on yeast α-glucosidase (setting [1]) is above 2000 µM.

For `O=c1cc(-c2ccc(O)cc2)oc2c(C3OCC(O)C(O)C3O)c(O)cc(O)c12` [Compound 23, apigenin-8-C-α-L-arabinopyranoside], the IC50 on yeast α-glucosidase (setting [1]) is above 2000 µM.

On to `CC1(C)C=Cc2c(cc(O)c3c2O[C@H](c2ccc(O)cc2)CC3=O)O1` [Compound 26, 8-prenylnaringenin C], for which the IC50 at yeast α-glucosidase (setting [1]) and at yeast α-glucosidase (setting [2]) was 2.35 ± 0.54 µM in each case.

In the case of 3, 4′-O-dimethylquercetin [Compound 21], on yeast α-glucosidase (setting [1]), the IC50 is 19.4 ± 1.02 µM.

Take `CC(C)=CCc1c(O)cc(O)c2c(=O)c(O)c(-c3ccc(O)c(O)c3)oc12` [Compound 11, 8-prenylquercretin]: the IC50 on yeast α-glucosidase (setting [1]) amounted to 0.87 ± 0.05 µM; at yeast α-glucosidase (read-out: IC50 against α-glucosidase (text, with unit)), 0.87 ± 0.05 µM. Besides, the “inhibition type against α-glucosidase” value in the assay with α-glucosidase is “anticompetitive”.

Turning to `COc1ccc(-c2oc3cc(O)cc(O)c3c(=O)c2O)cc1O` [Compound 19, tamarixetin], the IC50 on yeast α-glucosidase (setting [1]) was determined as 8.7 ± 0.08 µM.

Regarding `CC(C)=CCc1c(O)cc(/C=C/c2ccccc2)cc1O` [Compound 3, chiricanine A], the IC50 on yeast α-glucosidase (setting [1]) was determined as 30.3 ± 2.33 µM.

The record behind these values is paper PMC10180137 (Molecules, 2023).
